Assay results as given in PubChem BioAssay (NCI).
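How tested: cells in 96-well plates exposed to compound for 48 hours at five concentrations. The concentration for full growth arrest is given as TGI.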

Experiments:
Experiment in all cases: NCI tumour cell line growth inhibition, 48 h
[1] = test system: 786-0 renal
[2] = test system: A498 renal
[3] = test system: A549 NSCLC
[4] = test system: ACHN renal
[5] = test system: CAKI-1 renal
[6] = test system: CCRF-CEM leukemia
[7] = test system: COLO 205 colon
[8] = test system: DLD-1 colon
[9] = test system: DMS 114 small cell lung
[10] = test system: DMS 273 small cell lung
[11] = test system: EKVX NSCLC
[12] = test system: HCT-116 colon
[13] = test system: HCT-15 colon
[14] = test system: HL-60(TB) leukemia
[15] = test system: HOP-18 NSCLC
[16] = test system: HOP-62 NSCLC
[17] = test system: HOP-92 NSCLC
[18] = test system: HT29 colon
[19] = test system: IGROV1 ovarian
[20] = test system: KM12 colon
[21] = test system: KM20L2 colon
[22] = test system: LOX IMVI melanoma
[23] = test system: LXFL 529 NSCLC
[24] = test system: M14 melanoma
[25] = test system: M19-MEL melanoma
[26] = test system: MALME-3M melanoma
[27] = test system: MOLT-4 leukemia
[28] = test system: NCI-H226 lung
[29] = test system: NCI-H23 lung
[30] = test system: NCI-H460 lung
[31] = test system: NCI-H522 lung
[32] = test system: OVCAR-3 ovarian
[33] = test system: OVCAR-4 ovarian
[34] = test system: OVCAR-5 ovarian
[35] = test system: OVCAR-8 ovarian
[36] = test system: RXF 393 renal
[37] = test system: SF-268 CNS
[38] = test system: SF-295 CNS
[39] = test system: SK-MEL-2 melanoma
[40] = test system: SK-MEL-28 melanoma
[41] = test system: SK-MEL-5 melanoma
[42] = test system: SK-OV-3 ovarian
[43] = test system: SN12C renal
[44] = test system: SNB-19 CNS
[45] = test system: SNB-75 CNS
[46] = test system: SR leukemia
[47] = test system: SW-620 colon
[48] = test system: TK-10 renal
[49] = test system: U251 CNS
[50] = test system: UACC-257 melanoma
[51] = test system: UACC-62 melanoma
[52] = test system: UO-31 renal
[53] = test system: XF 498 CNS
[54] = test system: HCC-2998 colon
[55] = test system: K-562 leukemia
[56] = test system: RPMI-8226 leukemia
[57] = test system: SF-539 CNS
[58] = test system: SNB-78 CNS

[O-][n+]1c2cc(CBr)c(CBr)cc2[n+]([O-])c2c(O)cccc21
TGI [1]: 2.93 µM
TGI [2]: 25.7 µM
TGI [3]: 9.03 µM
TGI [4]: 3.51 µM
TGI [5]: 6.7 µM
TGI [6]: 0.714 µM
TGI [7]: 3.47 µM
TGI [8]: 2.71 µM
TGI [9]: 3.35 µM
TGI [10]: 3.22 µM
TGI [11]: 11.6 µM
TGI [12]: 2.87 µM
TGI [13]: 3.18 µM
TGI [14]: 1.14 µM
TGI [15]: 10.5 µM
TGI [16]: 34.7 µM
TGI [17]: 2.92 µM
TGI [18]: 3.88 µM
TGI [19]: 8.59 µM
TGI [20]: 3.66 µM
TGI [21]: 9.53 µM
TGI [22]: 2.64 µM
TGI [23]: 2.89 µM
TGI [24]: 3.29 µM
TGI [25]: 3.32 µM
TGI [26]: 3.47 µM
TGI [27]: 1.25 µM
TGI [28]: 14.2 µM
TGI [29]: 6.68 µM
TGI [30]: 4.21 µM
TGI [31]: 1.16 µM
TGI [32]: 5.24 µM
TGI [33]: 5.25 µM
TGI [34]: 3.74 µM
TGI [35]: 3.3 µM
TGI [36]: 3.69 µM
TGI [37]: 5.91 µM
TGI [38]: 3.27 µM
TGI [39]: 4.83 µM
TGI [40]: 3.67 µM
TGI [41]: 4.39 µM
TGI [42]: 9.15 µM
TGI [43]: 3.05 µM
TGI [44]: 11 µM
TGI [45]: 4.48 µM
TGI [46]: 0.662 µM
TGI [47]: 2.9 µM
TGI [48]: 10.9 µM
TGI [49]: 7.07 µM
TGI [50]: 6.37 µM
TGI [51]: 3.39 µM
TGI [52]: 4.56 µM
TGI [53]: 4.67 µM

O=C1OC(CC(=O)c2ccc(Cl)cc2)C(Cl)=C1Cl (stereo unspecified)
TGI [1]: > 100 µM
TGI [2]: > 100 µM
TGI [3]: > 100 µM
TGI [4]: > 100 µM
TGI [5]: > 100 µM
TGI [6]: > 100 µM
TGI [7]: > 100 µM
TGI [8]: > 100 µM
TGI [9]: > 100 µM
TGI [10]: > 100 µM
TGI [11]: > 100 µM
TGI [54]: > 100 µM
TGI [12]: > 100 µM
TGI [13]: > 100 µM
TGI [14]: 76.9 µM
TGI [15]: > 100 µM
TGI [16]: > 100 µM
TGI [17]: > 100 µM
TGI [18]: > 100 µM
TGI [19]: > 100 µM
TGI [55]: > 100 µM
TGI [20]: > 100 µM
TGI [21]: > 100 µM
TGI [23]: > 100 µM
TGI [24]: > 100 µM
TGI [25]: > 100 µM
TGI [26]: > 100 µM
TGI [27]: > 100 µM
TGI [28]: > 100 µM
TGI [29]: > 100 µM
TGI [30]: > 100 µM
TGI [31]: > 100 µM
TGI [32]: > 100 µM
TGI [33]: > 100 µM
TGI [34]: > 100 µM
TGI [35]: > 100 µM
TGI [56]: > 100 µM
TGI [37]: > 100 µM
TGI [38]: > 100 µM
TGI [57]: > 100 µM
TGI [39]: > 100 µM
TGI [40]: > 100 µM
TGI [41]: > 100 µM
TGI [42]: > 100 µM
TGI [43]: > 100 µM
TGI [44]: > 100 µM
TGI [45]: > 100 µM
TGI [46]: > 100 µM
TGI [47]: > 100 µM
TGI [48]: > 100 µM
TGI [49]: > 100 µM
TGI [50]: > 100 µM
TGI [51]: > 100 µM
TGI [52]: > 100 µM
TGI [53]: > 100 µM

Cc1ccc(C2=C(c3ccccc3)C(=O)C(c3ccccc3)=C2c2ccc(C)cc2)cc1
TGI [1]: > 100 µM
TGI [2]: > 100 µM
TGI [3]: > 100 µM
TGI [4]: > 100 µM
TGI [6]: 70.5 µM
TGI [8]: > 100 µM
TGI [11]: > 100 µM
TGI [54]: > 100 µM
TGI [12]: > 100 µM
TGI [13]: > 100 µM
TGI [15]: > 100 µM
TGI [16]: > 100 µM
TGI [18]: > 100 µM
TGI [19]: > 100 µM
TGI [55]: > 100 µM
TGI [20]: > 100 µM
TGI [21]: > 100 µM
TGI [23]: > 100 µM
TGI [24]: > 100 µM
TGI [25]: > 100 µM
TGI [26]: > 100 µM
TGI [27]: > 100 µM
TGI [28]: > 100 µM
TGI [29]: 85.1 µM
TGI [30]: > 100 µM
TGI [31]: > 100 µM
TGI [34]: > 100 µM
TGI [35]: > 100 µM
TGI [56]: > 100 µM
TGI [36]: > 100 µM
TGI [37]: > 100 µM
TGI [38]: > 100 µM
TGI [57]: 46.9 µM
TGI [39]: > 100 µM
TGI [40]: 48 µM
TGI [41]: > 100 µM
TGI [42]: > 100 µM
TGI [43]: > 100 µM
TGI [44]: > 100 µM
TGI [45]: > 100 µM
TGI [58]: > 100 µM
TGI [46]: > 100 µM
TGI [47]: 95.7 µM
TGI [48]: > 100 µM
TGI [49]: > 100 µM
TGI [50]: > 100 µM
TGI [52]: > 100 µM
TGI [53]: > 100 µM
